From article PMC11635053, “Development of a homotrimeric PSMA radioligand based on the NOTI chelating platform” (EJNMMI Radiopharmacy and Chemistry, 2024) come the findings set out here.

In data set [1] the target is T1, PSMA (Homo sapiens, UniProt Q04609).
T1 construct: host or cells: LNCaP
In words: Competitive binding assay in LNCaP cells with [177Lu]Lu-PSMA-617 as radioligand. Particulars: LNCaP cells, radioligand [177Lu]Lu-PSMA-617, 2 h at r.t.; read-out: IC50 (half maximum competitive inhibitory concentration). The procedure:
In order to establish a structure–activity relationship, the binding affinity of the metal-free and ^natGa-complexes of the conjugates 7, 8, and 9 were determined in the PSMA-positive human prostate cancer cell line LNCaP by a competitive binding assay as previously reported using [^177Lu]Lu-PSMA-617 as the radioligand (Stemler et al. [2021]). The conjugate Glu-CO-Lys-Ahx-HBED-CC (PSMA-11) was included as the control.
The competitive binding assay was carried out using a MultiScreen®HTS Vacuum Manifold system (Merck, Germany) with 96-well filter plates. Serial dilutions of the metal-free conjugates and corresponding ^natGa complexes were prepared to obtain 7 final concentrations ranging from 0 to 1000 nM for each compound. PSMA-11 was also tested as control. Experiments were performed twice in triplicate for each compound. Freshly prepared ^177Lu-labeled PSMA-617 was used as the radioligand. A volume of 1 μL of [^177Lu]Lu-PSMA-617 stock solution (2.83 μM) was added into each tube of the dilution series (radioligand concentration 3.14 nM). For the experiment, 10^5 LNCaP cells were seeded into each well. The final volume of each well was 150 μL (100 μL cells in medium + 50 μL inhibitor in PBS). The experiment was incubated for 2 h at r.t. in a plate shaker. Then, the supernatants were removed by vacuum. Wells were furthermore washed out with ice-cold PBS (3 × 200 μL, pH 7.4). The filters were punched into tubes for the subsequent quantification of the activity in a Gamma-counter. A nonlinear regression algorithm was applied by the software GraphPad Prism to determine the specific inhibitory concentrations of 50% for the tested radiotracers.

Data set [2] concerns PSMA-positive LNCaP cells. In words: Cell uptake / internalization of 68Ga-labeled conjugates in LNCaP cells. The class given is cell-based, human. Particulars: 1 h incubation, 2.5 pmol per 10^6 cells, 68Ga-labeled. The procedure:
Next, the cellular uptake of the ^68Ga-labeled conjugates 7, 8, and 9 as well as [^68Ga]Ga-PSMA-11 was determined in PSMA-positive LNCaP cells.
LNCaP cells were seeded (10^6 cells well^−1) in poly-L-lysine coated 6-well plates 24 h before the experiment. Experiments were performed twice in triplicate for each compound. The radiolabeling solutions of [^68Ga]Ga-7, [^68Ga]Ga-8, [^68Ga]Ga-9, and [^68Ga]Ga-PSMA-11 were first diluted with PBS (pH 7.4) to a concentration of […]. 100 µL of this dilution were added to 3900 µL PBS (pH 7.4) to obtain final stock solutions of each radiolabeled compound (0.025 nmol mL^−1).
On the day of the experiment, the medium was replaced by fresh preheated medium (1.4 mL w/o blocking, 1.3 mL with blocking) and the cells incubated for 1 h at 37 °C. Next, the blocking solution was added (100 μL, 2500 pmol) to the corresponding wells. Finally, the corresponding radiolabeled conjugate (100 μL, 2.5 pmol) was added to a final assay volume of 1.5 mL well^−1. After 1 h incubation time, the supernatants were removed and the cells were washed carefully with ice-cold PBS buffer (2 × 1 mL, pH 7.4) followed by a subsequent glycine–HCl washing step (50 mM, pH 2.8, 2 × 1 mL well^−1). Cells were incubated with the glycine–HCl solution for 4 min at r.t. Next, corresponding fractions were transferred into counting tubes. Subsequently, the cells were lysed by adding NaOH (2 × 1 mL well^−1, 0.1 M) and the lysed fractions were also transferred into counting tubes. As standards, 100 µL of each radiolabeled conjugate stock solution (0.025 nmol mL^−1, 2.5 pmol) were pipetted into counting tubes containing 2 mL PBS buffer. The activity of the standards, the surface bound fractions and the internalized fractions were measured in a Gamma counter. Means were calculated and subtracted by the background. The percentages of unspecific and specific cell-surface bound and internalized activity were calculated from the standards.

The format of data set [3] is in vitro ADME. Particulars: 2 h. The procedure: 100 μL of the radiolabeling solution of each ^68Ga-labeled tracer were added to preheated (37 °C) 1000 μL human serum (male, AB, Sigma Aldrich, USA) in triplicates and incubated at 37 °C. At 1 and 2 h, 100 µL aliquots were taken, mixed with 100 µL ice-cold acetonitrile, and centrifuged at 4 G for 5 min at 4 °C. The corresponding filtrates were kept on ice until HPLC analysis. The supernatants were then analyzed by radio-RP-HPLC and fractions of intact compounds were calculated from the HPLC chromatograms. (gradient 4,Gamma-ray detector: 100–900 keV, injection volume: 20 μl). tR ([^68Ga]Ga-7) = 12.1 min, tR ([^68Ga]Ga-8) = 14.4 min, tR ([^68Ga]Ga-9) = 25.2 min.

T1 sequence (Q04609 whole entry): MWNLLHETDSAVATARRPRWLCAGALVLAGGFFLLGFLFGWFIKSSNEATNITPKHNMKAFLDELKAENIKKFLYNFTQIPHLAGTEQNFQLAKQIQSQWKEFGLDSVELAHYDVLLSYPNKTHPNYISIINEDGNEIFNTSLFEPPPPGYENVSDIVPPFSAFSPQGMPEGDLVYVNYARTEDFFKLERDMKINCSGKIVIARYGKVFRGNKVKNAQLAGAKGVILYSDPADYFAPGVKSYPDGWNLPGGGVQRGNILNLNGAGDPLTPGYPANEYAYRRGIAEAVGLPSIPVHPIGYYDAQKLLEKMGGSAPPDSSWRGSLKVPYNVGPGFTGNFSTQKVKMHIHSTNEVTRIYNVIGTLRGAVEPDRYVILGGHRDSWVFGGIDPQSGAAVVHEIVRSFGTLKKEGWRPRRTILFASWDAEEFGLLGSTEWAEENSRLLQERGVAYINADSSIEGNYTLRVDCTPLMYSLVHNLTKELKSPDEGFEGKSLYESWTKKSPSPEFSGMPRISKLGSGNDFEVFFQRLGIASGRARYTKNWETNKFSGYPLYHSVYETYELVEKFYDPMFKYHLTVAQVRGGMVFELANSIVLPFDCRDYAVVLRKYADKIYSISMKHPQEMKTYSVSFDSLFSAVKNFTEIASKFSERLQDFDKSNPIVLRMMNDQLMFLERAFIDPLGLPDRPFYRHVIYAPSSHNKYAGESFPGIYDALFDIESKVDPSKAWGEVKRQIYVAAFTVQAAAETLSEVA

For the molecule `O=C(O)CC[C@H](NC(=O)N[C@@H](CCCCNC(=O)[C@H](Cc1ccc2ccccc2c1)NC(=O)[C@H]1CC[C@H](CNC(=O)CCCCn2ccnc2CN2CCN(Cc3nccn3CCCCC(=O)NC[C@H]3CC[C@H](C(=O)N[C@@H](Cc4ccc5ccccc5c4)C(=O)NCCCC[C@H](NC(=O)N[C@@H](CCC(=O)O)C(=O)O)C(=O)O)CC3)CCN(Cc3nccn3CCCCC(=O)NC[C@H]3CC[C@H](C(=O)N[C@@H](Cc4ccc5ccccc5c4)C(=O)NCCCC[C@H](NC(=O)N[C@@H](CCC(=O)O)C(=O)O)C(=O)O)CC3)CC2)CC1)C(=O)O)C(=O)O` [^nat/68Ga-9, metal not drawn], in data set [1], the IC50 came out at 4.8 nM. This molecule also registered a Cell-surface bound fraction in data set [2] of 1.5 ± 0.5%. The “Metabolic stability in human serum” value in data set [3] was “no significant degradation”.
